Data as given in ChEMBL document CHEMBL1201862, “PubChem BioAssay data set” (2004).
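Cultured in 96-well plates, cells were exposed to test compound for 48 hours across five concentrations. Here, GI50 denotes the concentration required for 50% inhibition of growth.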 Activity calls are given as the source filed them. Rule as the data show it: active = GI50 up to about 1.1 µM and inactive = higher.

Columns and labels:
Experiment in all cases: NCI-60 cell line screen, 48 h
SF-268 = test system: SF-268
CAKI-1 = test system: CAKI-1
U-251 = test system: U-251
HCT-15 = test system: HCT-15
OVCAR-8 = test system: OVCAR-8
MDA-MB-231 = test system: MDA-MB-231
OVCAR-5 = test system: OVCAR-5
HOP-62 = test system: HOP-62
COLO 205 = test system: COLO 205
TK-10 = test system: TK-10
MCF7 = test system: MCF7
NCI-H460 = test system: NCI-H460
HT-29 = test system: HT-29
PC-3 = test system: PC-3
Hs-578T = test system: Hs-578T
BT-549 = test system: BT-549
RPMI-8226 = test system: RPMI-8226
MDA-N = test system: MDA-N
NCI/ADR-RES = test system: NCI/ADR-RES
SK-MEL-5 = test system: SK-MEL-5
SK-OV-3 = test system: SK-OV-3
SK-MEL-2 = test system: SK-MEL-2
DU-145 = test system: DU-145
IGROV-1 = test system: IGROV-1
OVCAR-3 = test system: OVCAR-3
UACC-257 = test system: UACC-257
NCI-H522 = test system: NCI-H522
OVCAR-4 = test system: OVCAR-4
MDA-MB-435 = test system: MDA-MB-435
SF-295 = test system: SF-295
T47D = test system: T47D
HCT-116 = test system: HCT-116
LOX IMVI = test system: LOX IMVI
NCI-H226 = test system: NCI-H226
M14 = test system: M14
EKVX = test system: EKVX
HOP-92 = test system: HOP-92
SNB-19 = test system: SNB-19
A549 = test system: A549
SW-620 = test system: SW-620
NCI-H23 = test system: NCI-H23
KM12 = test system: KM12
A498 = test system: A498
MOLT-4 = test system: MOLT-4
UO-31 = test system: UO-31
SR = test system: SR
SNB-75 = test system: SNB-75
ACHN = test system: ACHN
HCC 2998 = test system: HCC 2998
786-0 = test system: 786-0
SF-539 = test system: SF-539
SN12C = test system: SN12C
SK-MEL-28 = test system: SK-MEL-28
UACC-62 = test system: UACC-62
HL-60 = test system: HL-60
CCRF-CEM = test system: CCRF-CEM
Malme-3M = test system: Malme-3M
K562 = test system: K562

Cc1c2c(n(CC(c3ccccc3)c3ccccc3)c1C)NN=C(C#N)S2(=O)=O
GI50 (SF-268): 64.1 µM (inactive)
GI50 (CAKI-1): > 100 µM (inactive)
GI50 (U-251): > 100 µM (inactive)
GI50 (HCT-15): > 100 µM
GI50 (OVCAR-8): > 100 µM (inactive)
GI50 (MDA-MB-231): 33.9 µM (inactive)
GI50 (OVCAR-5): > 100 µM (inactive)
GI50 (HOP-62): > 100 µM (inactive)
GI50 (COLO 205): > 100 µM (inactive)
GI50 (TK-10): > 100 µM (inactive)
GI50 (MCF7): > 100 µM (inactive)
GI50 (NCI-H460): > 100 µM (inactive)
GI50 (HT-29): > 100 µM (inactive)
GI50 (PC-3): > 100 µM (inactive)
GI50 (Hs-578T): 43.1 µM (inactive)
GI50 (BT-549): > 100 µM (inactive)
GI50 (RPMI-8226): > 100 µM (inactive)
GI50 (MDA-N): > 100 µM (inactive)
GI50 (NCI/ADR-RES): > 100 µM (inactive)
GI50 (SK-MEL-5): > 100 µM (inactive)
GI50 (SK-OV-3): > 100 µM (inactive)
GI50 (SK-MEL-2): > 100 µM (inactive)
GI50 (DU-145): > 100 µM (inactive)
GI50 (IGROV-1): > 100 µM (inactive)
GI50 (OVCAR-3): > 100 µM (inactive)
GI50 (UACC-257): > 100 µM (inactive)
GI50 (NCI-H522): 45.6 µM (inactive)
GI50 (OVCAR-4): > 100 µM (inactive)
GI50 (MDA-MB-435): > 100 µM (inactive)
GI50 (SF-295): > 100 µM (inactive)
GI50 (T47D): > 100 µM (inactive)
GI50 (HCT-116): 74 µM (inactive)
GI50 (LOX IMVI): > 100 µM (inactive)
GI50 (NCI-H226): > 100 µM (inactive)
GI50 (M14): > 100 µM (inactive)
GI50 (EKVX): > 100 µM (inactive)
GI50 (HOP-92): > 100 µM (inactive)
GI50 (SNB-19): > 100 µM (inactive)
GI50 (A549): > 100 µM (inactive)
GI50 (SW-620): > 100 µM (inactive)
GI50 (NCI-H23): > 100 µM (inactive)
GI50 (KM12): 66.2 µM (inactive)
GI50 (A498): > 100 µM (inactive)
GI50 (MOLT-4): 37.7 µM (inactive)
GI50 (UO-31): > 100 µM (inactive)
GI50 (SR): 35.2 µM (inactive)
GI50 (SNB-75): 98.4 µM (inactive)
GI50 (ACHN): > 100 µM (inactive)
GI50 (HCC 2998): > 100 µM (inactive)
GI50 (786-0): > 100 µM (inactive)
GI50 (SF-539): > 100 µM (inactive)
GI50 (SN12C): > 100 µM (inactive)
GI50 (SK-MEL-28): > 100 µM (inactive)
GI50 (UACC-62): 97.7 µM (inactive)

OC[C@]1(n2nc3ccccc3n2)OC[C@@H]1c1ccccc1
GI50 (SF-268): 30.8 µM (inactive)
GI50 (CAKI-1): 27.2 µM (inactive)
GI50 (U-251): 48.4 µM (inactive)
GI50 (HCT-15): 42.1 µM
GI50 (OVCAR-8): 51.5 µM (inactive)
GI50 (MDA-MB-231): 74.3 µM (inactive)
GI50 (OVCAR-5): 91.4 µM (inactive)
GI50 (HOP-62): 39.3 µM (inactive)
GI50 (COLO 205): 55.5 µM (inactive)
GI50 (TK-10): 60.4 µM (inactive)
GI50 (MCF7): 33.7 µM (inactive)
GI50 (NCI-H460): 76.2 µM (inactive)
GI50 (HT-29): 29.6 µM (inactive)
GI50 (PC-3): 70 µM (inactive)
GI50 (Hs-578T): 56 µM (inactive)
GI50 (BT-549): 28.8 µM (inactive)
GI50 (RPMI-8226): 26.9 µM (inactive)
GI50 (MDA-N): 53.7 µM (inactive)
GI50 (NCI/ADR-RES): 57.3 µM (inactive)
GI50 (SK-MEL-5): 83.2 µM (inactive)
GI50 (SK-OV-3): > 100 µM (inactive)
GI50 (HL-60): 31.4 µM (inactive)
GI50 (SK-MEL-2): 34 µM (inactive)
GI50 (DU-145): 27.5 µM (inactive)
GI50 (IGROV-1): 37.2 µM (inactive)
GI50 (OVCAR-3): 21.7 µM (inactive)
GI50 (UACC-257): 93.8 µM (inactive)
GI50 (NCI-H522): 20.1 µM (inactive)
GI50 (OVCAR-4): 16.9 µM (inactive)
GI50 (MDA-MB-435): 32.2 µM (inactive)
GI50 (SF-295): 83.4 µM (inactive)
GI50 (T47D): 36 µM (inactive)
GI50 (HCT-116): 30.4 µM (inactive)
GI50 (LOX IMVI): 42.5 µM (inactive)
GI50 (NCI-H226): 32.2 µM (inactive)
GI50 (M14): 90.6 µM (inactive)
GI50 (CCRF-CEM): 36.1 µM (inactive)
GI50 (EKVX): > 100 µM (inactive)
GI50 (Malme-3M): 19.4 µM (inactive)
GI50 (HOP-92): 44.6 µM (inactive)
GI50 (SNB-19): > 100 µM (inactive)
GI50 (A549): 64.3 µM (inactive)
GI50 (NCI-H23): 48.2 µM (inactive)
GI50 (KM12): 45.6 µM (inactive)
GI50 (A498): 60.5 µM (inactive)
GI50 (K562): 56.9 µM (inactive)
GI50 (MOLT-4): 33.7 µM (inactive)
GI50 (UO-31): 95.3 µM (inactive)
GI50 (SR): 32.2 µM (inactive)
GI50 (ACHN): 36.6 µM (inactive)
GI50 (HCC 2998): > 100 µM (inactive)
GI50 (786-0): 34.8 µM (inactive)
GI50 (SF-539): 25.2 µM (inactive)
GI50 (SN12C): 43.1 µM (inactive)
GI50 (SK-MEL-28): 28.2 µM (inactive)
GI50 (UACC-62): 43.3 µM (inactive)
